In assay [1] the target is CTX-M-44 (Class C) β-lactamase (Escherichia coli, UniProt Q47066). Briefly: In vitro enzymatic assay (Nitrocefin). Format: biochemical. The method, then:
(§1) 2) Prepare buffer solution A (1×PBS, pH 7.4, 0.1 mg/mL BSA) for enzymatic assay;
(§2) 3) The compound mother liquor was 4-fold serial diluted for 11 times with DMSO in a 96-well tip-bottom plate, which was used as a working solution. A 96-well flat bottom plate was used as a test plate, the corresponding reaction buffer was previously added to each well, followed by addition of a corresponding volume of the working solution (100 μM-0.095 nM and 0 nM). Wherein, EDTA-Na2 was used as a control for the NDM-1 test at a concentration of 20 mM;
(§3) 4) adding the corresponding β-lactamase, and the test plate was incubated at 37° C. for 5 minutes;
(§4) 5) Adding 5 μL Nitrocefin (the final reaction volume was 100 μL), the absorbance OD490 of the reaction solution in the plate was measured by a microplate reader and the result was recorded, the absorbance was measured every minute over 30 minutes;
(§5) 6) The microplate reader could give a curve of OD490 over time. The slope of the curve (Abs2−Abs1)/(T2−T1) was calculated by taking two data points Abs1 and Abs2 within the linear range of the curve.
(§6) 7) The relative inhibition rate was calculated as follows: Slope (EC) was calculated under the condition of absence of an inhibitor, and Slop(S) was calculated under the condition of an inhibitor at a certain concentration.
(§7) The relative inhibition rate and the corresponding concentration of the inhibitor were used to calculate the IC50 value of the inhibitor on β-lactamase. In this experiment, the IC50 was calculated using the formula of GraphPad Prism 5.0, log(inhibitor) vs. normalized response-Variable slope.

Assay [2] addresses OXA-9 (Class D) β-lactamase (Klebsiella pneumoniae, UniProt P0A3M3). Briefly: In vitro enzymatic assay (Nitrocefin). Format: biochemical. How it is done: as §1, §2, §3, §4, §5, §6, §7
Assay [3] deals with OXA-2 (Class D) β-lactamase (Escherichia coli, UniProt P0A1V9). As to the kind of experiment: In vitro enzymatic assay (Nitrocefin). Type of assay: biochemical. How it is done:
as §1, §2, §3, §4, §5, §6, §7

Assay [4] addresses AmpC-EC (Class C) β-lactamase (UniProt P05364). Briefly: In vitro enzymatic assay (Nitrocefin). Format: biochemical. The settings on record: Nitrocefin 0.1 mM, 1 × PBS pH 7.4, 0.1 mg/mL BSA, read-out: IC50, inhibitory activity on β-lactamase. How it is done:
as §1, §2, §3, §4, §5, §6, §7

Assay [5] deals with K. pneumoniae ATCC BAA-1144 (AmpC). Briefly: In vitro synergistic inhibitory concentration (SIC) assay. Format: cell-based. The settings on record: Klebsiella pneumoniae, ATCCBAA1144, 37° C. 20 hours, read-out: minimum inhibitory concentration, used alone. The method, then: (§8) 2) 30 μL dimethyl sulfoxide was added to columns 2-12 of the 96-V well plate. 60 μL prepared ceftazidime was added to column 1. 30 μL ceftazidime was transferred from column 1 to column 2 and mixed with a pipette. The same operation was continued until column 11, and 30 μL of the mixture in column 11 was discarded. This was the compound mother plate.
(§9) Mix the liquid in the mother plate with a pipette.
(§10) 4) One day before the experiment, the bacterial glycerol stock which was stored in a −80° C. refrigerator was streaked on a trypticase soy agar plate (TSA), and the plate was incubated in a 37° C. incubator overnight. On the day of the experiment, the monoclonal bacterial was suspended in physiological saline and the turbidity of which was adjusted to 0.5 McFarland standard, corresponding to 1×10^8 CFU/ml. This suspension was diluted 100-fold to 1×10^6 CFU/mL with caton-adjusted Mueller-Hnton broth (CAMHB), which was used as an inoculation fluid.
(§11) 5) a 96-U plate was used as a test plate. Firstly, adding 98 μL CAMHB to each well of the test plate and transferring 2 μL solution in the mother plate to the test plate. 100 μL inoculation fluid was added to each well of the test plate.
(§12) 6) The test plate was incubated at 37° C. for 20 hours.
(§13) The above-mentioned method was also used to determine the antibacterial activity of the test compound or the antibiotic when used alone.

In assay [6] the test system is K. pneumoniae ATCC 51504 (TEM-10). Described as above. Type of assay: cell-based. To be noted: Klebsiella pneumoniae, ATCC51504, 37° C. 20 hours, read-out: minimum inhibitory concentration, used alone. The method, then: as §8, §9, §10, §11, §12, §13
Assay [7] has as its system K. pneumoniae ATCC-700603 (SHV-18). Described as above. Type of assay: cell-based. The settings on record: Klebsiella pneumoniae, ATCC700603, 37° C. 20 hours, read-out: minimum inhibitory concentration, used alone. The method, then:
as §8, §9, §10, §11, §12, §13

The test system of assay [8] is K. pneumoniae ATCC BAA-1899 (KPC). The description is as above. Type of assay: cell-based. To be noted: Klebsiella pneumoniae, ATCCBAA1899, 37° C. 20 hours, read-out: minimum inhibitory concentration, used alone. How it is done: as §8, §9, §10, §11, §12, §13
Assay [9] concerns K. pneumoniae ATCC BAA-205 (TEM-1/SHV-1/SHV-12). Described as above. Type of assay: cell-based. To be noted: Klebsiella pneumoniae, ATCCBAA205, 37° C. 20 hours, read-out: minimum inhibitory concentration, used alone. How it is done:
as §8, §9, §10, §11, §12, §13

Assay [10] deals with K. pneumoniae ATCC BAA-1705 (KPC). The assay is described as above. The settings on record: Klebsiella pneumoniae, ATCCBAA1705, 37° C. 20 hours, read-out: minimum inhibitory concentration, used alone. Type of assay: cell-based. The method, then:
as §8, §9, §10, §11, §12, §13

For assay [11], the system named is E. cloacae ATCC BAA-1143 (AmpC). Described as above. The settings on record: Enterobacter cloacae, ATCCBAA1143, 37° C. 20 hours, read-out: minimum inhibitory concentration, used alone. Type of assay: cell-based. The method, then: as §8, §9, §10, §11, §12, §13
Assay [12] has as its system K. pneumoniae ATCC 51503 (TEM-10/12). The description is as above. Type of assay: cell-based. To be noted: Klebsiella pneumoniae, ATCC51503, 37° C. 20 hours, read-out: minimum inhibitory concentration, used alone. How it is done:
as §8, §9, §10, §11, §12, §13

The subject of assay [13] is K. pneumoniae ATCC BAA-1898 (KPC). The description is as above. To be noted: Klebsiella pneumoniae, ATCCBAA1898, 37° C. 20 hours, read-out: minimum inhibitory concentration, used alone. Format: cell-based. The method, then:
as §8, §9, §10, §11, §12, §13

The test system of assay [14] is OXA-181 carbapenemase-producing strains (7 strains), clinically isolated Klebsiella pneumoniae. As to the kind of experiment: SIC assay against Chinese clinical isolates (broth microdilution MIC). Type of assay: cell-based. The settings on record: for MIC50 / MIC90: Klebsiella pneumoniae; for drug resistance rate / drug sensitive rate: OXA-181 carbapenemase-producing strains (7 strains), CLSI criteria of the antibiotic, inhibitor fixed at 4 μg/mL. An excerpt:
(§14) The broth microdilution method was used to determine the minimum inhibitory concentration (MIC) of antibacterial agents (with and without BLI lead compound) against clinical isolates of carbapenemase-producing strains.
(§15) 1. Drug susceptibility test: according to the method of antimicrobial susceptibility test described in the 2016 edition of the US Clinical and Laboratory Standards Institute (CLSI) document, the MIC of commonly used antibacterial drugs against clinically isolated bacteria was determined by a broth microdilution method.
2. […] All strains were clinically isolated Klebsiella pneumoniae.
(§16) 4. Quality control strains: quality control strains of the drug susceptibility test include Escherichia coli ATCC 25922 and ATCC 35218.
(In general: Dilution methods test growth across graded concentrations, often in twofold steps.)

Assay [15] has as its system KPC-2 carbapenemase-producing strains (8 strains), clinically isolated Klebsiella pneumoniae. The description is as above. Type of assay: cell-based. To be noted: for drug resistance rate / drug sensitive rate: KPC-2 carbapenemase-producing strains (8 strains), CLSI criteria of the antibiotic, inhibitor fixed at 4 μg/mL.
Source text: as §14, §15
(§17) 2. Strains: 8 KPC-2 carbapenemase-producing strains, 8 NDM-1 metalloenzyme-producing strains, and 6 OXA-181 carbapenemase-producing strains. All strains were clinically isolated Klebsiella pneumoniae.
as §16

In assay [16] the test system is NDM-1 metalloenzyme-producing strains (8 strains), clinically isolated Klebsiella pneumoniae. Described as above. Type of assay: cell-based. To be noted: for MIC50 / MIC90: Klebsiella pneumoniae; for MIC50 / MIC90 / MIC range: NDM-1 metalloenzyme-producing K. pneumoniae clinical isolates (8 strains), enzyme inhibitor in combinations fixed at 4 μg/mL; for drug resistance rate / drug sensitive rate: NDM-1 metalloenzyme-producing strains (8 strains), CLSI criteria of the antibiotic, inhibitor fixed at 4 μg/mL.
Source text: as §14, §15, §17, §16

Assay [17] relates to E. coli ATCC BAA-2523 (OXA-48). Briefly: In vitro synergistic inhibitory concentration (SIC) assay. Type of assay: cell-based. To be noted: Escherichia coli, ATCCBAA2523, 37° C. 20 hours, read-out: minimum inhibitory concentration, used alone. The method, then:
as §8, §9, §10, §11, §12, §13

The subject of assay [18] is K. pneumoniae ATCC BAA-2524 (OXA-48). Described as above. To be noted: Klebsiella pneumoniae, ATCCBAA2524, 37° C. 20 hours, read-out: minimum inhibitory concentration, used alone. Type of assay: cell-based. The method, then: as §8, §9, §10, §11, §12, §13
Assay [19] relates to K. pneumoniae ATCC BAA-2472 (NDM-1). The description is as above. Format: cell-based. The settings on record: Klebsiella pneumoniae, ATCCBAA2472, 37° C. 20 hours, read-out: minimum inhibitory concentration, used alone. How it is done: as §8, §9, §10, §11, §12, §13
Assay [20] has as its system K. pneumoniae ATCC BAA-2470 (NDM-1). The assay is described as above. Type of assay: cell-based. To be noted: Klebsiella pneumoniae, ATCCBAA2470, 37° C. 20 hours, read-out: minimum inhibitory concentration, used alone. The method, then:
as §8, §9, §10, §11, §12, §13

[21] abbreviates: OXA-181 carbapenemase-producing K. pneumoniae clinical isolates (7 strains), enzyme inhibitor in combinations fixed at 4 μg/mL.
The mark [22] stands for this setting: Klebsiella pneumoniae, KPC-2 carbapenemase-producing K. pneumoniae clinical isolates (8 strains), enzyme inhibitor in combinations fixed at 4 μg/mL.

As a reminder, the IC50 is the concentration that gives 50% inhibition. For orientation: MIC50 means the lowest concentration that inhibits either 50% of growth or 50% of the strains tested, depending on the study. For orientation: MIC90 means an inhibitory concentration at the 90% level, which refers to growth in some studies and to a panel of isolates in others.

As to `NC(=O)[C@@H]1CC[C@@H]2CN1C(=O)N2OS(=O)(=O)O` [Avibactam, avibactam], the IC50 is 67 nM in [1], 3130 nM in [2], 1490 nM in assay [3] and 107 nM in assay [4].
As to `CC(C)(O/N=C(\C(=O)N[C@@H]1C(=O)N2C(C(=O)[O-])=C(C[n+]3ccccc3)CS[C@H]12)c1csc(N)n1)C(=O)O` [Ceftazidime, ceftazidime], the MIC in assay [5] was over 128 µg/mL; in [6], over 128 µg/mL; in [7] it was 64 µg/mL; in assay [8], over 128 µg/mL; in assay [9] it was 32 µg/mL; in [10] it was over 128 µg/mL. Besides, the MIC in [11], in assay [12] and in assay [13] was over 128 µg/mL each time. The MIC50 in assay [14] (setting [21]), in assay [15] (setting [22]) and in [16] was over 128 µg/mL in each case. The MIC90 in assay [14] (setting [21]), in assay [15] (setting [22]) and in [16] was over 128 µg/mL in each case. In addition, the drug resistance rate in assay [14], in assay [15] and in assay [16] was 100 each time. Moreover, the drug sensitive rate in [14], in assay [15] and in assay [16] was 0 throughout. In addition, the MIC range in assay [15] (KPC-2 carbapenemase-producing K. pneumoniae clinical isolates (8 strains), enzyme inhibitor in combinations fixed at 4 μg/mL) is 64 to 128 µg/mL; in assay [16] it was over 128 µg/mL.
For the molecule `C[C@@H](O)[C@H]1C(=O)N2C(C(=O)O)=C(S[C@@H]3CN[C@H](C(=O)Nc4cccc(C(=O)O)c4)C3)[C@H](C)[C@H]12` [Ertapenem, ertapenem], the MIC was 8 µg/mL in assay [17], 4 µg/mL in assay [18], over 128 µg/mL in [19] and over 128 µg/mL in [20].
Take `NCCONC(=O)[C@@H]1CC[C@@H]2CN1C(=O)N2OS(=O)(=O)O` [OP-0595]: the MIC in [5] is over 128 µg/mL; in assay [6], over 128 µg/mL; in assay [7] it was over 128 µg/mL; in assay [8], over 128 µg/mL; in assay [9], over 128 µg/mL; in assay [17], 16 µg/mL. Besides, the MIC in assay [10] was over 128 µg/mL; in [11], 4 µg/mL; in [12], over 128 µg/mL; in [13] it was over 128 µg/mL; in assay [18], over 128 µg/mL; in assay [19], over 128 µg/mL. Further, the MIC in assay [20] was over 128 µg/mL.
As to `C[C@H]1[C@H](NC(=O)/C(=N\OC(C)(C)C(=O)O)c2csc(N)n2)C(=O)N1S(=O)(=O)O` [aztreonam], the MIC50 in assay [16] was 64 µg/mL.
In the case of `C[C@@H](O)[C@H]1C(=O)N2C(C(=O)O)=C(S[C@@H]3CN[C@H](C(=O)N(C)C)C3)[C@H](C)[C@H]12` [meropenem], the MIC50 in assay [14] (setting [21]) turned out to be 0.5 µg/mL; in assay [15] (setting [22]), 64 µg/mL; in assay [16], 4 µg/mL. For the same molecule, the MIC90 in [14] (setting [21]) worked out at 2 µg/mL; in assay [16], 32 µg/mL. Further, the MIC range is 0.5 to 2 µg/mL in assay [14] (setting [21]) and 2 to 32 µg/mL in [16]. For the same molecule, the results for the drug resistance rate in assay [14], in assay [15] and in [16] were 0, 100 and 75, respectively. Further, the drug sensitive rate was determined as 85.7 in [14], 0 in assay [15] and 0 in assay [16].
